Test results taken from publication PMC7029871, “Development and validation of a sensitive LC-MS/MS method for the quantitation of IMB-YH-4py5-2H, an antituberculosis candidate, and its application to the pharmacokinetic study” (PLoS ONE, 2020).
Like-named read-outs stand apart in the source and are kept apart here.

Legend:
[1] = Distribution in plasma, lung homogenate, ELF and AMs after oral dose; format: in vivo, Sprague-Dawley rats; conditions: rat, single oral dose 100 mg/kg; for concentration at 8 h / concentration at 30 h / concentration at 0.083 h / concentration at 0.5 h: both sexes, Sprague-Dawley
Method: After the oral administration of 100 mg/kg IMB-YH-4py5-2H, rats from each group (six rats per group and three rats per sex) were sacrificed at 5 min, 0.5 h, 8 h, and 30 h. Rat lungs were collected, rinsed with saline, wiped dry, accurately weighed and homogenized with ultrapure water. The homogenate was kept at −20°C until analysis.
As two representative infectious sites in lower respiratory tract infections, lung epithelial lining fluid (ELF) and alveolar macrophages (AMs) were investigated to determine the distribution of IMB-YH-4py5-2H. Freshly collected rat lungs were lavaged three times from the trachea with 5 mL of ice-cold phosphate buffer (pH 7.4). The lavage fluid was centrifuged at 4°C (650 × g, 5 min) to separate AMs from the ELF, immediately. The cell counts of the resuspended AMs were assessed by using the haemocytometer. The AMs were extracted with 1 mL of 0.1 M NaOH for analysis. To calculate the concentrations of IMB-YH-4py5-2H in ELF and AMs, reported data were employed. As reported, the total volume of ELF was estimated to be 393 μL/rat (~200 g body weight), and the intracellular volume of a single AM was 1166 μm^3 [25]. Based on the reported volume of a single AM, the raw data of IMB-YH-4py5-2H concentrations in AMs, expressed as ng/10^5 cells, were converted to the values with the unit of μg/mL (Eq 1), which was consistent with the unit of concentrations in plasma and ELF and easier for comparison.
CAM (μg/mL) is the concentration of IMB-YH-4py5-2H expressed as μg/mL, CAM (ng/10^5 cells) is the concentration with the unit of ng/10^5 cell, and V is the volume of a single AM (1166 μm^3).
The homogenate, ELF, and AM samples were processed as described in “Sample processing” and injected into the LC-MS/MS system for analysis.

CYP2B6 = target: T1, CYP2B6 (Homo sapiens, UniProt P20813); test: Metabolism by recombinant human P450 enzyme; format: in vitro ADME; conditions: recombinant CYP2B6 0.05 nmol/mL, 1 μM, 30 min
T1 construct: purchased Corning (Woburn, MA, USA)
T1 sequence (P20813 1-491): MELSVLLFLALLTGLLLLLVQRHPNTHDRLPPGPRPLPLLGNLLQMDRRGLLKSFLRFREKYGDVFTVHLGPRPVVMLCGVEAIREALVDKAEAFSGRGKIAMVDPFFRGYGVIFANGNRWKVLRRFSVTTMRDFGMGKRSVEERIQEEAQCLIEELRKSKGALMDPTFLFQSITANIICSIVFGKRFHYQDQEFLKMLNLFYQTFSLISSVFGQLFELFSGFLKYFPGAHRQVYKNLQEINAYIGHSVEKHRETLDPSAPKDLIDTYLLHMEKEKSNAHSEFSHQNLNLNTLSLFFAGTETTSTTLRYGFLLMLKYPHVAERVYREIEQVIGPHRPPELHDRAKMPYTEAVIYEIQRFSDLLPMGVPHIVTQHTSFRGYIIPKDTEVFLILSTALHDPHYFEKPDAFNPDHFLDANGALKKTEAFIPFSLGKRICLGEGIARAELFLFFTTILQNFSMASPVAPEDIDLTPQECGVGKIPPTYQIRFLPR
Method: (§1) In addition, to characterize the enzymes that may be involved in microsomal metabolism, IMB-YH-4py5-2H was incubated at 37°C for 30 min with different recombinant human P450 enzymes, i.e., CYP1A2, CYP2A6, CYP2B6, CYP2C8, CYP2C9, CYP2C19, CYP2D6, CYP2E1, CYP3A4 and CYP3A5. The incubation system included CYP isoenzyme at a final concentration of 0.05 nmol/mL, 100 mM PBS (pH 7.4) or 100 mmol/L Tris buffer (pH 7.5, Tris buffer was used in the CYP2C9 and CYP2A6 reaction systems and PBS was used for the other enzymes), NADPH regeneration system, and 1 μM IMB-YH-4py5-2H.
(§2) After incubation, the samples were processed as described in “Sample processing”. All experiments were performed in triplicate. The concentration of IMB-YH-4py5-2H was measured using LC-MS/MS analysis.

CYP2A6 = target: T2, CYP2A6 (Homo sapiens, UniProt P11509); test: Metabolism by recombinant human P450 enzyme; format: in vitro ADME; conditions: recombinant CYP2A6 0.05 nmol/mL, 1 μM, 30 min
T2 construct: purchased Corning (Woburn, MA, USA)
T2 sequence (P11509 1-494): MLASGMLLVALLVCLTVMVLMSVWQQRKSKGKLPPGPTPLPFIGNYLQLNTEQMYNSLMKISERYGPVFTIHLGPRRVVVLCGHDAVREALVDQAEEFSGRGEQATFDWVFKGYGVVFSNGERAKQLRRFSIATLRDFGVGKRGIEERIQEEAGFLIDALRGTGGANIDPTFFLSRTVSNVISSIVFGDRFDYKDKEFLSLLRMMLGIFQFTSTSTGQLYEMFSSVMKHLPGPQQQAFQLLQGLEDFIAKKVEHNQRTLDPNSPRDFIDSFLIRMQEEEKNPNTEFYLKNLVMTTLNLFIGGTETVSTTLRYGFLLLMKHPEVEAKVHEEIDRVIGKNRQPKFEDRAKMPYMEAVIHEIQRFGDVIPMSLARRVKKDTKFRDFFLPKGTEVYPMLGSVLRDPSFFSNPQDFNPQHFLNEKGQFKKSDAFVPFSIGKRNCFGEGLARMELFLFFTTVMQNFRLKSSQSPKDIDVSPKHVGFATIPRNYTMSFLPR
Method: as §1, §2

## CN(C)C(=O)/C=C/C(=O)c1ccc(-c2ccncc2)cc1.Cl [IMB-YH-4py5-2H, (E)-N,N-dimethyl-4-oxo-4-(4-(pyridin-4-yl)phenyl)but-2-enamide hydrochloride]
[1]; alveolar macrophages (AMs), 8 h, converted with reported volume of a single AM (Eq 1), read-out: Concentration, AMs
  concentration at 8 h: 99.7 ± 36.7 µg/mL
[1]; alveolar macrophages (AMs), 30 h, converted with reported volume of a single AM (Eq 1), read-out: Concentration, AMs
  concentration at 30 h: 25.3 ± 19.4 µg/mL
[1]; lung epithelial lining fluid (ELF), 0.083 h, ELF volume taken as 393 μL/rat, read-out: Concentration, ELF
  concentration at 0.083 h: 0.639 ± 0.093 µg/mL
[1]; lung epithelial lining fluid (ELF), 0.5 h, ELF volume taken as 393 μL/rat, read-out: Concentration, ELF
  concentration at 0.5 h: 1.8 ± 0.264 µg/mL
[1]; lung epithelial lining fluid (ELF), 8 h, ELF volume taken as 393 μL/rat, read-out: Concentration, ELF
  concentration at 8 h: 0.121 ± 0.032 µg/mL
[1]; lung epithelial lining fluid (ELF), 30 h, ELF volume taken as 393 μL/rat, read-out: Concentration, ELF
  concentration at 30 h: 0.05 ± 0.045 µg/mL
[1]; lung homogenate, 0.083 h, read-out: Concentration, lung homogenate
  concentration at 0.083 h: 4410 ± 607 ng/g
[1]; lung homogenate, 0.5 h, read-out: Concentration, lung homogenate
  concentration at 0.5 h: 10900 ± 1960 ng/g
[1]; lung homogenate, 8 h, read-out: Concentration, lung homogenate
  concentration at 8 h: 107 ± 22 ng/g
[1]; lung homogenate, 30 h, read-out: Concentration, lung homogenate
  concentration at 30 h: 11 ± 3 ng/g
[1]; plasma, 0.083 h, read-out: Concentration, Plasma
  concentration at 0.083 h: 0.917 ± 0.071 µg/mL
[1]; plasma, 0.5 h, read-out: Concentration, Plasma
  concentration at 0.5 h: 1.06 ± 0.192 µg/mL
[1]; plasma, 8 h, read-out: Concentration, Plasma
  concentration at 8 h: 0.155 ± 0.029 µg/mL
[1]; plasma, 30 h, read-out: Concentration, Plasma
  concentration at 30 h: 0.039 ± 0.012 µg/mL
[1]; 0.083 h
  Concentration, AMs: 166.763±40.110 ng/10^5 cells
[1]; 0.083 h, converted with reported volume of a single AM (Eq 1)
  Concentration, AMs: 1494.295 ± 359.408 µg/mL
[1]; 0.5 h
  Concentration, AMs: 227.198±35.589 ng/10^5 cells
[1]; 0.5 h, converted with reported volume of a single AM (Eq 1)
  Concentration, AMs: 2035.827 ± 318.898 µg/mL
[1]; 8 h
  Concentration, AMs: 11.128±4.099 ng/10^5 cells
[1]; 30 h
  Concentration, AMs: 2.823±2.164 ng/10^5 cells
CYP2B6
  metabolism by CYP isozyme: high metabolic activity
CYP2A6
  metabolism by CYP isozyme: high metabolic activity
